Measurements reported in patent US20080187492A1, “Drosophila Models For Diseases Affecting Learning and Memory” (priority 2004, published 2008).

Key:
Assay type in all cases: in vivo, Drosophila melanogaster
[1] = test system: FS (dFMR1-3+frame shifted rescue fragment) flies; assay: Naive courtship behavior (courtship index toward virgin female), FS flies
Text: (§1) Learning and memory (cognitive abilities) can be examined in Drosophila by utilizing several available learning and memory paradigms. The most popular is a classical conditioning paradigm in which the flies learn to associate electric shocks with olfactory cues (Dudia et al, 1976; Davis, 1993; Tully, 1994). An alternative paradigm to study learning and memory in Drosophila is called conditioned courtship, wherein a male fly learns to modify his courtship behavior after experience with an unreceptive female; it is a multi-sensory paradigm involving associations from more then one sensory input (Siegel and Hall, 1979; for review see Hall, 1994). It is a more complex associative learning paradigm and was utilized to assay learning and memory in this article to elucidate the role of dFMR1 in learning and memory (Tompkins et al, 1980; Tompkins et al, 1982; Tompkins et al, 1983; Tompkins et al, 1984; Ackerman and Siegel, 1986). Courting male flies perform a characteristic sequence of behaviors: orienting toward and following the female, tapping her with his forelegs, vibrating one or both wings, licking her genitalia, and attempting copulation (Sturtevant, 1915; Bastock and Manning, 1955; Bastock, 1956). These behaviors are repeated with some variation until successful copulation occurs. Virgin females will generally respond by mating; however, recently mated females will be unreceptive and will not allow copulation to occur (Spieth, 1974), they display different behaviors (Bastock and Manning, 1955; Connolly and Cook, 1973) and have an altered, although somewhat overlapping, pheromonal profile (Cobb and Ferveur, 1996). The naive male will find a previously mated female to have a pheromonal repertoire that is less provocative then that of a virgin female target. A naive male paired with a mated female will initially court her, but his courtship activity soon decreases; after 1 hour of experience with the mated female, his courtship when subsequently paired with a virgin female remains depressed for 2-3 hours (Siegel and Hall, 1979). This effect is not a general suppression of all courtship activity since a male's tendency to court an immature male is not suppressed (Gailey et al, 1984). […] These behaviors are quantified as a courtship index (CI) which is defined as the percentage of time a male fly spends performing any of the six courtship steps toward a target female in a ten minute test period. A decrease in CI after training with a previously mated female is indicative of behavioral plasticity in the form of learning or memory.
Since we use female targets that are not etherized (therefore they are freely moving), and the w118 and dfmr1-3 flies may have slightly impaired visual acuity due to lack of eye pigmentation, and since visual inputs affect courtship behavior, all subsequent experiments were done utilizing only the genotypes Rescue: dfmr1-3+wild type rescue fragment, and FS: dfmr1-3+frame shifted rescue fragment. Both of these genotypes have more pigmentation and similar levels of eye pigmentation to each other. For FIGS. 4 and 5, a high concentration of MPEP (1,000 μg/ml) was used. For the remainder of the experiments the food was either control (CT) or exactly the same control food containing the appropriate concentration of MPEP (M). The position of the CT and the M are indicative of the point at which the group was on the particular food. The first letter indicates the food type that the larvae grew up on, and the second letter denotes the food type that the adult flies were placed on within four hours of eclosion, […] fresh food.
Naive males were placed in the training chamber for one hour with no female, and then placed with a virgin target female for a ten-minute interval. The naive courtship behavior was reduced by high MPEP concentration in Rescue (p<0.0001) and FS (p<0.0005) lines, and it was depressed to similar levels by high MPEP treatment in the Rescue and FS groups (FIG. 2A). […]

[2] = test system: Rescue (dFMR1-3+wild type rescue fragment) flies; assay: Naive courtship behavior (courtship index toward virgin female), Rescue flies; details: for naive courtship: 5 day old
Text: as §1
Since we use female targets that are not etherized (therefore they are freely moving), and the w118 and dfmr1-3 flies may have slightly impaired visual acuity due to lack of eye pigmentation, and since visual inputs affect courtship behavior, all subsequent experiments were done utilizing only the genotypes Rescue: dfmr1-3+wild type rescue fragment, and FS: dfmr1-3+frame shifted rescue fragment. Both of these genotypes have more pigmentation and similar levels of eye pigmentation to each other. For FIGS. 4 and 5, a high concentration of MPEP (1,000 μg/ml) was used. For the remainder of the experiments the food was either control (CT) or exactly the same control food containing the appropriate concentration of MPEP (M). The position of the CT and the M are indicative of the point at which the group was on the particular food. The first letter indicates the food type that the larvae grew up on, and the second letter denotes the food type that the adult flies were placed on within four hours of eclosion, and for the four following days, until the day before testing when they were placed on fresh food.
In order to determine if MPEP can get into the Drosophila central nervous system (CNS) through feeding behavior, we mixed MPEP into the food at a concentration of 1,000 μg/ml ([…]). Males were raised on CT food and then placed on either CT or M food. […]

[3] = test system: FS (dFMR1-3+frame shifted rescue fragment) flies; assay: Conditioned courtship: short-term memory at 60 minutes, virgin female target, FS flies
Protocol: (§2) Short-term memory. The model was further extended to encompass short-term memory at 60 minutes after training. After the one hour training session with a previously mated female, the female is removed and the male is placed in a holding chamber for 60 minutes, then subsequently placed in a testing chamber with a virgin female target to assess short-term memory (FIG. 4C). […] CT-CT FS flies court just as vigorously at 60 minutes after training as naive CT-CT FS flies. […] The FS groups that were treated with MPEP in development alone, adulthood alone or in both development and adulthood display experience dependent reduction of courtship activity at 60 minutes after training when compared to group matched naives M-M FS, p<0.0001, CT-M FS, p<0.0001 and M-CT FS, p<0.0001. […] Additionally, flies were tested for ability to discriminate between virgin and previously mated females (FIG. 4D).
(§3) In order to examine short-term memory at 60 minutes after training, after the one hour training session with a previously mated female, the female is removed and the male is placed in a holding chamber for 60 minutes, then subsequently placed in a testing chamber with a virgin female (FIG. 9B). […] CT-CT FS flies court just as vigorously at 60 minutes after training as naive CT-CT FS flies. […] The FS groups that were treated with MPEP in development alone, adulthood alone or in both development and adulthood display experience dependent reduction of courtship activity at 60 minutes after training when compared to group matched naives M-M FS.

[4] = test system: Rescue (dFMR1-3+wild type rescue fragment) flies; assay: Conditioned courtship: short-term memory at 60 minutes, virgin female target, Rescue flies; details: 5 day old; MPEP (20 μg/ml), NaCl (5 and 50 mM), LY341495 (400 nM)
Protocol: as §2, §3

[5] = test system: FS flies lacking dfmr1 activity; assay: Short-term memory (60 mins) with mated female targets, FS flies
Protocol: (§4) Effects of drug treatment on short-term memory (60 mins) in flies lacking dfmr1 activity with mated female targets. Short-term (60 min.) memory was measured in Rescue and FS flies that were either fed control food or underwent various drug treatments as described below. Short-term memory was measured by placing a trained male in a holding chamber for 60 minutes (after being trained for one hour with a previously mated female), then subsequently placing him in a testing chamber with a mated female target for a ten-minute courtship interval (C.I.). This C.I. was compared to the C.I. obtained for naïve courtship of a previously mated female, i.e., C.I. during the first 10 minutes of the training session with a previously mated female. Additionally, for reference the C.I. during the last 10 minutes of the training period was also determined. Numbers of flies are indicated above each bar for all groups. The levels of significance are indicated as follows; *=p<0.05; **=p<0.005; ***=p<0.0001.
(§5) Restoration of short-term memory with mGluR antagonists. To establish that the failure to observe memory was not due to a problem with recognizing or processing the appropriate cues from the virgin female target, we used a modified version of the conditioned courtship paradigm where the male is paired with a mated female target subsequent to training (Kane et al., 1997; Joiner and Griffith, 1997; Joiner and Griffith, 1999; Kamashev et al., 1999). Again, with pharmacologic treatment it is necessary to utilize more then one compound to confirm the specificity of the target, so in this case we used four mGluR antagonists. […] It is also important to note that the robust deficit in synaptic plasticity in FS flies, with regard to memory, is a critical extension of the previous models of Fragile X syndrome in model organisms, since this is one of the most prominent aspects of the human disorder. Furthermore, we have shown that antagonism of the mGluRs can restore synaptic plasticity in the Drosophila model of Fragile X syndrome.

Rescue flies = assay: Short-term memory (60 mins) with mated female targets, Rescue flies
Protocol: as §4, §5

[6] = 86 μM MPEP, 400 nM LY341495, 573 μM MPPG, 348 μM MTPG
[7] = 5 day old, 8.6 mM MPEP, 400 nM LY341495

Row | Structure (SMILES) | naive courtship ([1]; 5 day old, NaCl at 5 or 50 mM in food) | naive courtship ([2]; LiCl 5 mM, NaCl 5 mM in food) | naive courtship ([2]; LiCl 50 mM, NaCl 50 mM in food) | short term memory ([3]; 5 day old, NaCl (5 and 50 mM)) | short term memory [4] | naive courtship activity ([1]; 5 day old adults, 573 mM MPPG (p<0.0001) or 348 μM MTPG (p<0.005)) | naive courtship activity ([2]; 5 day old adults, 573 mM MPPG or 348 μM MTPG, p<0.0001 for both) | short-term memory ([3]; 20-day-old, concentration not given) | short-term memory, mated female target [5, 6] | memory at 60 minutes post training, mated female target [5, 7] | short-term memory, mated female target (Rescue flies; [6]) | memory at 60 minutes post training, mated female target (Rescue flies; [7])
1 | [Cl-].[Na+] [NaCl] | did not restore naive courtship | did not suppress naive courtship | suppressed naive courtship | had no effect | did not affect short term memory | – | – | – | – | – | – | –
2 | CC(N)(C(=O)O)c1ccc(P(=O)(O)O)cc1 (racemic) [MPPG, (RS)-alpha-methyl-4-phosphoonophenylglycine] | – | – | – | – | – | significant increase in courtship activity | significant decrease in courtship activity | rescue short-term memory | demonstrated restoration of short-term memory | demonstrate memory at 60 minutes post training | demonstrated intact short-term memory | demonstrate memory at 60 minutes post training
